Data published in US10159249B2 (BAYER CROPSCIENCE AKTIENGESELLSCHAFT, priority 2013, dated 2018).

What was measured:
Euphorbia heterophylla = test: Field trial, weed efficacy, post applied; format: in vivo; conditions: Atrazine 1000 g ai/ha; application at 5 leaf stage; assessment 14 days after application
PfHPPDEvo40 = PfHPPDEvo40 (Pseudomonas sp., UniProt P80064, A172V/A339E/A53E/D148E/D45N/E105D/E287Q/E300V/E334P/F143Y/G286D/G335S/H150N/H254A/H63N/I158V/I187A/I249V/K92N/L18F/N24G/N280D/S245T/S257K/S301E/T205S/V65I); test: Brown color assay, HPPD inhibitor tolerance of E. coli HPPD extracts; conditions: extract titrated on 250 uM inhibitor; brown pigment formation
Amaranthus retroflexus = conditions: Glufosinate-ammonium 500 g ai/ha; application at 6 leaf stage; assessment 14 days after application
[1] = test system: Ipomoea aristolochiaefolia; conditions: Glyphosate 960 g ai/ha; application at 6 leaf stage; assessment 14 days after application
Digitaria horizontalis = test: Field trial, weed efficacy, post applied; format: in vivo; conditions: application at 2 tillers, assessment 14 days after application

Chain of PfHPPDEvo40 (P80064 other isoform, or with tags, fused parts or gaps with the stated changes): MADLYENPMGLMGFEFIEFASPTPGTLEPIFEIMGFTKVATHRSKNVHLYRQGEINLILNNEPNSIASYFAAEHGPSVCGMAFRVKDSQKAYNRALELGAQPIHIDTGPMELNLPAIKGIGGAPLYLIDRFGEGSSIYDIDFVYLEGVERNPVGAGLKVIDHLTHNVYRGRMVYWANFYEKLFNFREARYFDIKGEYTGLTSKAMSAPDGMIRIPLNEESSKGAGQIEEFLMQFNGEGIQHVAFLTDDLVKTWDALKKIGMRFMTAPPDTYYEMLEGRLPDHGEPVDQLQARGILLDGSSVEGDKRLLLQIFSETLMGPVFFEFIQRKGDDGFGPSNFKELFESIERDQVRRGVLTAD

SMILES: CCNc1nc(Cl)nc(NC(C)C)n1 [Atrazine, reference compound]
- Efficacy (%) Euphorbia heterophylla (Euphorbia heterophylla): 74%

SMILES: CS(=O)(=O)c1cc(C(F)(F)F)ccc1C(=O)C(C#N)C(=O)C1CC1 (stereo not shown) [DKN, diketonitrile]
- tolerance of variant PfHPPDEvo40 to the inhibitor compared to PfHPPD336W (PfHPPDEvo40): improved tolerance

SMILES: CP(=O)(O)CCC(N)C(=O)O (stereo not shown) [Glufosinate-ammonium, reference compound]
- Efficacy (%) Amaranthus retroflexus (Amaranthus retroflexus): 33%

SMILES: O=C(O)CNCP(=O)(O)O [Glyphosate, reference compound]
- Efficacy (%) Ipomoea aristolochiaefolia [1]: 70%

SMILES: CSc1nnc(C(C)(C)C)c(=O)n1N [Metribuzin]
- Efficacy (%) Digitaria horizontalis (Digitaria horizontalis; Metribuzin 240 g ai/ha): 15%
- Efficacy (%) Digitaria horizontalis (Digitaria horizontalis; Metribuzin 480 g ai/ha): 35%

SMILES: CS(=O)(=O)c1ccc(C(=O)C2C(=O)CCCC2=O)c(Cl)c1COCC(F)(F)F [TBT, tembotrione]
- tolerance of variant PfHPPDEvo40 to the inhibitor compared to PfHPPD336W (PfHPPDEvo40): improved tolerance
